Test results: US20230031406A1, “COMPOUNDS AND COMPOSITIONS FOR TREATING CONDITIONS ASSOCIATED WITH NLRP ACTIVITY” (Novartis AG, priority 2018, published 2023)
Like-named read-outs stand apart in the source and are kept apart here.

Tested on: PMA-differentiated THP-1 cells
Test: IL-1β production in PMA-differentiated THP-1 cells stimulated with gramicidin (hTHP-1 assay containing 2% fetal bovine serum; Procedures 1 and 2)
Assay type: cell-based, human
Details: 2% fetal bovine serum
Summary of the method: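 PMA-primed (20 ng/ml, 16-18 h) THP-1 cells in RPMI with 2% FBS, 50,000 cells/well, were preincubated 1 h with compound (0.0017-100 μM final, 0.37% DMSO), then stimulated 2 h with 5 μM gramicidin. Supernatant IL-1β measured by HTRF.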

[1] = Homo sapiens, THP-1, Table B2, class symbols, read-out: hTHP-1 IC50
[2] = Table B4, class symbols, read-out: hTHP-1 IC50
[3] = Table B1, class symbols, read-out: Average IC50 of compounds in hTHP-1 assay: hTHP-1 IC50
[4] = Homo sapiens, THP-1, Table B1, class symbols, read-out: Average IC50 of compounds in hTHP-1 assay: hTHP-1 IC50

Work on `Cc1c(C2CC2)nc2c(c1NC(=O)N=S(N)(=O)c1sc(C(C)(C)O)nc1CO)CCC2` (centres unmarked) [Compound 679, N′-((2-cyclopropyl-3-methyl-6,7-dihydro-5H-cyclopenta[b]pyridin-4-yl)carbamoyl)-4-(hydroxymethyl)-2-(2-hydroxypropan-2-yl)thiazole-5-sulfonimidamide] yielded an IC50 [1] of 5 to 30 µM.
Work on `CCn1cc(F)c(S(N)(=O)=NC(=O)Nc2c3c(nc(C)c2-c2ccccc2)CCC3)n1` (centres unmarked) [Example 741, 1-Ethyl-4-fluoro-N′-((2-methyl-3-phenyl-6,7-dihydro-5H-cyclopenta[b]pyridin-4-yl)carbamoyl)-1H-pyrazole-3-sulfonimidamide] yielded an IC50 (Homo sapiens, THP-1, Table B4, class symbols, read-out: hTHP-1 IC50) of 0.04 to 0.2 µM.
Work on `CCn1cc(F)c(S(N)(=O)=NC(=O)Nc2c3c(nc4c2CCC4)CCC3)n1` (single isomer, unassigned) [Example 762, (S) or (R)-1-ethyl-4-fluoro-N′-((1,2,3,5,6,7-hexahydrodicyclopenta[b,e]pyridin-8-yl)carbamoyl)-1H-pyrazole-3-sulfonimidamide] yielded an IC50 [2] of 5 to 30 µM.
With `CC1CCc2c1nc1c(c2NC(=O)N=S(N)(=O)c2ccn(C(F)F)n2)CCC1` (single isomer, unassigned) [Compound 184c, (R,S) or (R,R)-1-(difluoro-methyl)-N′-((3-methyl-1,2,3,5,6,7-hexahydro-dicyclopenta[b,e]pyridin-8-yl)carbamoyl)-1H-pyrazole-3-sulfonimidamide] the IC50 [3] was 5 to 30 µM.
With `NS(=O)(=NC(=O)Nc1c2c(nc(C3CC3)c1C1CC1)CCC2)c1ccn(C(F)F)n1` (single isomer, unassigned) [Example 695, (R) or (S)-N′-((2,3-dicyclopropyl-6,7-dihydro-5H-cyclopenta [b]pyridin-4-yl)carbamoyl)-1-(difluoromethyl)-1H-pyrazole-3-sulfonimidamide] the IC50 (Table B3, hTHP-1 assay, class symbols, read-out: IC50) was 1 to 5 µM.
With `Cc1c(C(F)(F)F)nc2c(c1NC(=O)N=S(N)(=O)c1nn(-c3ccccc3)cc1F)CCC2` (single isomer, unassigned) [Example 784, (S) or (R)-4-fluoro-N′-((3-methyl-2-(trifluoromethyl)-6,7-dihydro-5H-cyclopenta [b]pyridin-4-yl)carbamoyl)-1-phenyl-1H-pyrazole-3-sulfonimidamide] the IC50 [2] was 5 to 30 µM.
`CC(C)(O)c1ncc(S(N)(=O)=NC(=O)Nc2c3c(nc4c2CCC4(C)C)CCC3)s1` (single isomer, unassigned) [Compound 153b, (R) or (S)-N′-((3,3-dimethyl-1,2,3,5,6,7-hexahydro-dicyclopenta[b,e]pyridin-8-yl)carbamoyl)-2-(2-hydroxypropan-2-yl)thiazole-5-sulfonimidamide] showed an IC50 [3] of 0.04 to 0.2 µM.
For `C[C@@H]1CCc2c1nc1c(c2NC(=O)N=[S@@](N)(=O)c2cnc(C(C)(C)O)s2)CCC1` [Compound 162bb, (R,R)-2-(2-hydroxypropan-2-yl)-N′-((3-methyl-1,2,3,5,6,7-hexahydrodicyclo-penta[b,e]pyridin-8-yl)carbamoyl)thiazole-5-sulfonimidamide], the IC50 [4] was 0.04 to 0.2 µM.
`CC(C)(O)c1cnc(S(N)(=O)=NC(=O)Nc2c3c(nc4c2CCC42CC2)CCC3)s1` (centres unmarked) [Compound 683, 5-(2-Hydroxypropan-2-yl)-N′-((1′,5′,6′,7′-tetrahydro-2′H-spiro[cyclopropane-1,3′-dicyclopenta[b,e]pyridin]-8′-yl)carbamoyl)thiazole-2-sulfonimidamide] gave an IC50 [1] of 1 to 5 µM.
Work on `CC(C)n1ccc(S(N)(=O)=NC(=O)Nc2c3c(nc4c2CCC4)CCC3)n1` (centres unmarked) [Compound 119, N′-((1,2,3,5,6,7-hexahydrodicyclopenta[b,e]pyridin-8-yl)carbamoyl)-1-isopropyl-1H-pyrazole-3-sulfonimidamide] yielded an IC50 [4] of 1 to 5 µM.
Work on `Cc1c(C2(C)CC2)nc2c(c1NC(=O)N=S(N)(=O)c1cc(C(C)(C)O)cs1)CCC2` (single isomer, unassigned) [Compound 669a, (S) or (R)-4-(2-Hydroxypropan-2-yl)-N′-((3-methyl-2-(1-methylcyclopropyl)-6,7-dihydro-5H-cyclopenta[b]pyridin-4-yl)carbamoyl) thiophene-2-sulfonimidamide] yielded an IC50 (Homo sapiens, THP-1, Table B2, numeric bounds, read-out: hTHP-1 IC50) of over 30 µM.
